Assay results as given in patent US10149881B2, “Method for treating inflammatory, allergic or asthma diseases, containing paprika extracts” (priority 2010, dated 2018).

Legend:
Type in all cases: in vivo, mice
[1] = tested on: infiltration of immune cells; assay: Immune cell infiltration, comparison with luteolin in asthma model; conditions: FIG. 12
Description: In order to examine whether the asthma inhibitory effect of the paprika extract of the present invention is attributable to a combination of components or a specific component alone, the following test was carried out. Specifically, the immune cell infiltration of luteolin was examined.

IgG1 = assay: Analysis of IgG1, OVA asthma mouse model; conditions: blood; FIG. 11, FIG. 14
Description: (§1) Meanwhile, immunoglobulin IgG2a is produced by activation of Th1 cells, and the activity of Th1 cells reduces the level of IgG1 which is increased by the activity of Th2 cells. Thus, IgG1 and IgG2a were analyzed.

immunoglobulin-E (IgE) = assay: Measurement of blood immunoglobulin E (IgE) level, OVA asthma mouse model; conditions: FIG. 13
Description: When asthma in mice is induced using OVA, the immunoglobulin-E (IgE) among the blood antibody levels of the mice increases in proportion to the severity of asthma. Based on this principle, the paprika extract obtained according to the method of Example 1 was named “sample SP526”, and the blood immunoglobulin-E (IgE) level of the mice was measured. Also, the level of immunoglobulin-E (IgE) was measured.

IgG2a = assay: Analysis of IgG2a, OVA asthma mouse model; conditions: FIG. 14
Description: as §1

## O=c1cc(-c2ccc(O)c(O)c2)oc2cc(O)cc(O)c12 [luteolin]
[1]
  infiltration of immune cells: inhibited the infiltration of immune cells
IgG1
  expression of IgG1: not inhibited
immunoglobulin-E (IgE)
  effect on blood immunoglobulin-E levels: did not reduce
IgG2a
  IgG2a, index of the activation of Th1 cells: produced IgG2a
